According to article PMC11714206, “Massively Parallel Screening of Toll/Interleukin‐1 Receptor (TIR)‐Derived Peptides Reveals Multiple Toll‐Like Receptors (TLRs)‐Targeting Immunomodulatory Peptides” (Advanced Science, 2024):
Where “and” joins values, the source holds several entries; their conditions need not be identical. Equal values may be shown once. One block for each sequence: values may come before it.

Target: T1, MyD88^TIR (Homo sapiens, UniProt Q99836)
T1 construct: MyD88 (residues 148–296); 6xHis; made in house; host or cells: E. coli BL21 (DE3)
T1 sequence (Q99836 148-296): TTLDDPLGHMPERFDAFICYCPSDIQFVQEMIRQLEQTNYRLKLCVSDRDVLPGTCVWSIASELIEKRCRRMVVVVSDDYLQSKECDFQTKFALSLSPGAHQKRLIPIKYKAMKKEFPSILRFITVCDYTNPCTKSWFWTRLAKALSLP
Assay: T‐Surf phage library (P8 and P3) selection against MyD88^TIR, four rounds, NGS read counts
Format: binding
Details: for P8_MyD88 Rank (after) / P8_MyD88 Rank (before): P8 library; for Population: P8_MyD88 pool: P8 T-Surf phage library, 4th round of selection against MyD88 TIR, share of NGS reads
Method: T‐Surf libraries were screened against the immobilized TIR domains of two major human TLR adaptor proteins, MAL^TIR and MyD88^TIR, allowing cross‐species selection of TIR‐binding motifs with 190 946 TIR‐derived peptides in a single binding assay (Scheme 1). Enriched phage pools from the fourth round of selection were analyzed using NGS after barcoding the peptide‐coding regions of the phage pools.
Phage display screening was performed by coating two wells of a 96‐well plate (Maxisorp, Thermo Fisher Scientific) with 100 µL of 5 µg mL^−1 TIR domains overnight; then, the coated wells were blocked with 200 µL of blocking buffer (0.2% BSA in PBS) and set aside for 1 h at 4 °C with gentle shaking. Next, 100 µL of the phage library was added to the wells and incubated for 1 h at room temperature (RT; 20 – 22 °C) with gentle shaking. The plate was washed four times with PBS containing 0.5% Tween‐20; the bound phages were eluted by adding 100 µL of 100 mM HCl to each well. The elute was neutralized with 10 µL of 1.0 M Tris‐HCl (pH 11.0). E. coli TG1 cells were grown to the log phase (A600 = ≈0.6), and 1 mL of the culture was incubated with 100 µL of the eluted phages for 30 min at 37 °C, with shaking at 200 rpm. Next, 1 µL of M13KO7 helper phages was added, followed by incubation for 45 min at 37 °C, with shaking. Subsequently, the cells were transferred to 25 mL of 2× yeast extract tryptone/carbenicillin/kanamycin medium and incubated overnight at 37 °C with shaking at 200 rpm. The amplified phages were precipitated with 20% PEG‐8000/2.5 M NaCl to be used for the next round of selection.
The naïve T‐Surf libraries in P8 and P3 and the enriched phage pools after four rounds were barcoded for NGS as previously described.^[ [59] ^] Briefly, 5 µL of the phage pool was used as a template for 20 cycles of a 50 µL PCR reaction using […] each of forward and reverse barcoded primers and PrimeSTAR Max DNA Polymerase. The PCR products were purified using Expin Gel SV (GeneAll). The NGS samples were quantified using qPCR, following the qPCR Quantification Protocol Guide (KAPA Library Quantification kits for Illumina Sequencing Platform), and qualified using the TapeStation High Sensitivity D1000 ScreenTape (Agilent Technologies). The indexed libraries were further sequenced by Macrogen (Seoul, Republic of Korea) using the NovaSeq platform (Illumina) with 100 bp paired‐end reads. The reads were demultiplexed by barcodes and filtered for an average Phred quality score of at least 30, followed by trimming the flanking consensus sequences using Cutadapt (version 2.3). Peptide sequence populations were analyzed according to the read counts.

[1] = P8_MyD88: rank by NGS read count after grouping
[2] = P8_MyD88: rank by NGS read count before grouping
[3] = P8_MyD88: rank by count after grouping
[4] = P8_MyD88: rank by count before grouping
[5] = selection against MyD88 TIR, rank by count after grouping
[6] = selection against MyD88 TIR, rank by count before grouping
[7] = selection against MyD88, rank after grouping
[8] = selection against MyD88, rank before grouping
[9] = 4R selection against MyD88, rank after grouping
[10] = 4R selection against MyD88, rank before grouping
[11] = selection against MyD88, rank by count after grouping
[12] = selection against MyD88, rank by count before grouping

Rank (after) [1]: 1006
Rank (before) [2]: 2846
Sequence: DPQDLECVYERLVSLF

Rank (after) [3]: 459
Rank (before) [4]: 2844
Sequence: DPQDLELFYEQLVRPF

P8_MyD88 Rank (after) [5]: 209
P8_MyD88 Rank (before) [6]: 1112
Sequence: DPQDLEWFYERLFSLI

Rank (after) [3]: 450
Rank (before) [4]: 1113
Sequence: DPQDLEWFYERLFSR

P8_MyD88 Rank (after) [5]: 247
P8_MyD88 Rank (before) [6]: 2852
Sequence: DPQDLEWFYERLGSLF

P8_MyD88 Rank (after) [7]: 515
P8_MyD88 Rank (before) [8]: 2879
Sequence: DPQDLEWFYERLLAR

Rank (after) [3]: 446
Rank (before) [4]: 2849
Sequence: DPQDLEWFYERLVILF

Population: 0.0112%
Sequence: DPQDLEWFYERLVSLF

P8_MyD88 Rank (after) [5]: 244
P8_MyD88 Rank (before) [6]: 2882
Sequence: DPQDLEWFYERLVSLFL

Population: 0.01%
Sequence: DPQDLEWFYERLVSLI

Rank (after) [3]: 453
Rank (before) [4]: 2884
Sequence: DPQDLEWFYERLVSLIP

Population: 0.0224%
Sequence: DPQDLEWFYERLVSLL

P8_MyD88 Rank (after) [5]: 266
P8_MyD88 Rank (before) [6]: 2851
Sequence: DPQDLEWFYERLVSRF

P8_MyD88 Rank (after) [5]: 259
P8_MyD88 Rank (before) [6]: 2853
Sequence: DPQDLEWFYERPVSLF

Rank (after) [3]: 180
Rank (before) [4]: 1108
Sequence: DPQDLEWLYERLVSLF

Rank (after) [1]: 972
Rank (before) [2]: 2856
Sequence: DPQDLEWNFERPVSLF

P8_MyD88 Rank (after) [9]: 611
P8_MyD88 Rank (before) [10]: 2721
Sequence: DPQDLGCFYERLVSLF

P8_MyD88 Rank (after) [9]: 624
P8_MyD88 Rank (before) [10]: 2726
Sequence: DPQDLGWFYERLISQILK

Rank (after) [3]: 441
Rank (before) [4]: 2722
Sequence: DPQDLGWFYERLLSLF

Population: 0.00617%
Sequence: DPQDLGWFYERLVSLF

P8_MyD88 Rank (after) [9]: 666
P8_MyD88 Rank (before) [10]: 2903
Sequence: DPQDLHGIYERLVILF

Rank (after) [3]: 472
Rank (before) [4]: 2901
Sequence: DPQDLLRFYEHLVSLF

P8_MyD88 Rank (after) [7]: 488
P8_MyD88 Rank (before) [8]: 2947
Sequence: DPQDLNGFMNVCLAR

P8_MyD88 Rank (after) [11]: 691
P8_MyD88 Rank (before) [12]: 2906
Sequence: DPQDLQCSSERLVSLI

Rank (after) [3]: 467
Rank (before) [4]: 2944
Sequence: DPQDLQSLYEGLVSLV

P8_MyD88 Rank (after) [5]: 281
P8_MyD88 Rank (before) [6]: 2908
Sequence: DPQDLQWFCERLVSLF

P8_MyD88 Rank (after) [7]: 514
P8_MyD88 Rank (before) [8]: 2911
Sequence: DPQDLQWFYECLVSLL

Population: 0.03%
Sequence: DPQDLQWFYERLVSLL

P8_MyD88 Rank (after) [7]: 494
P8_MyD88 Rank (before) [8]: 2920
Sequence: DPQDLQWFYERLVSLMASGI

Rank (after) [1]: 938
Rank (before) [2]: 2939
Sequence: DPQDLQWSYERLVSRI

Rank (after) [1]: 986
Rank (before) [2]: 2713
Sequence: DPQDLVWFYERLVSIV

Population: 0.00886%
Sequence: DPQDLVWFYERLVSLF

Rank (after) [1]: 909
Rank (before) [2]: 2712
Sequence: DPQDLVWFYERPVSIF

P8_MyD88 Rank (after) [5]: 263
P8_MyD88 Rank (before) [6]: 2714
Sequence: DPQDLVWFYESLVSLF

Rank (after) [1]: 977
Rank (before) [2]: 2720
Sequence: DPQDLVWFYKRLFSQM

Rank (after) [3]: 410
Rank (before) [4]: 2717
Sequence: DPQDLVWYYERLVSLF

P8_MyD88 Rank (after) [9]: 602
P8_MyD88 Rank (before) [10]: 2975
Sequence: DPQDMEWFYERLVSLIL

P8_MyD88 Rank (after) [9]: 661
P8_MyD88 Rank (before) [10]: 2961
Sequence: DPQDPDRNYERMVSRL

P8_MyD88 Rank (after) [7]: 522
P8_MyD88 Rank (before) [8]: 2962
Sequence: DPQDPDWCYERLVSLI

P8_MyD88 Rank (after) [9]: 591
P8_MyD88 Rank (before) [10]: 2968
Sequence: DPQDQDRFYERLVSLF

Rank (after) [1]: 936
Rank (before) [2]: 2966
Sequence: DPQDQDWVYERLVSLF

Rank (after) [3]: 438
Rank (before) [4]: 2970
Sequence: DPQDQEWFYERLFSHV

P8_MyD88 Rank (after) [9]: 619
P8_MyD88 Rank (before) [10]: 2971
Sequence: DPQDQEWLYERLFSQM

Rank (after) [3]: 423
Rank (before) [4]: 2956
Sequence: DPQDRDWIYERLVSLF

P8_MyD88 Rank (after) [7]: 516
P8_MyD88 Rank (before) [8]: 2958
Sequence: DPQDREWCYERLVSLL

P8_MyD88 Rank (after) [5]: 277
P8_MyD88 Rank (before) [6]: 2957
Sequence: DPQDREWFYERLVSLF

P8_MyD88 Rank (after) [7]: 499
P8_MyD88 Rank (before) [8]: 2976
Sequence: DPQDTDWFYERLVSMF

Rank (after) [3]: 401
Rank (before) [4]: 3015
Sequence: DPQELDGFYERLVSLF

P8_MyD88 Rank (after) [11]: 689
P8_MyD88 Rank (before) [12]: 2982
Sequence: DPQELDWFYELLVSPF

Population: 0.02% and 0.0158%
Sequence: DPQELDWFYERLVSLF

P8_MyD88 Rank (after) [11]: 714
P8_MyD88 Rank (before) [12]: 2987
Sequence: DPQELDWIYQRLVSLF

P8_MyD88 Rank (after) [5]: 241
P8_MyD88 Rank (before) [6]: 2986
Sequence: DPQELDWYYERLVSLF

P8_MyD88 Rank (after) [9]: 667
P8_MyD88 Rank (before) [10]: 2991
Sequence: DPQELECLYERLFSQM

Rank (after) [3]: 405
Rank (before) [4]: 2994
Sequence: DPQELEGVYERLVSLF

P8_MyD88 Rank (after) [9]: 620
P8_MyD88 Rank (before) [10]: 2993
Sequence: DPQELEWFYERLLSQM

Rank (after) [3]: 163
Rank (before) [4]: 745
Sequence: DPQELEWFYERLVSLF

P8_MyD88 Rank (after) [7]: 554
P8_MyD88 Rank (before) [8]: 2981
Sequence: DPQELGWFYERPFSQM

P8_MyD88 Rank (after) [11]: 759
P8_MyD88 Rank (before) [12]: 3018
Sequence: DPQELQWIYERLVSLF

Rank (after) [1]: 962
Rank (before) [2]: 3010
Sequence: DPQELVWRYERLVSLF

P8_MyD88 Rank (after) [11]: 743
P8_MyD88 Rank (before) [12]: 2995
Sequence: DPQEQLSFCERLITVF

P8_MyD88 Rank (after) [9]: 585
P8_MyD88 Rank (before) [10]: 3020
Sequence: DPQEQVGICVRLMEAL

Rank (after) [1]: 902
Rank (before) [2]: 3019
Sequence: DPQERGCQYQRLVGML

P8_MyD88 Rank (after) [9]: 584
P8_MyD88 Rank (before) [10]: 2674
Sequence: DPQGHAWTYERHLSVF

Rank (after) [3]: 443
Rank (before) [4]: 2664
Sequence: DPQGLAWFYERLVSLL

Rank (after) [3]: 396
Rank (before) [4]: 2679
Sequence: DPQGLDWFYERLFSQM

Rank (after) [1]: 926
Rank (before) [2]: 2666
Sequence: DPQGLDWYYVRLVSLL

P8_MyD88 Rank (after) [5]: 223
P8_MyD88 Rank (before) [6]: 2678
Sequence: DPQGLGWFYERLVSLF

P8_MyD88 Rank (after) [9]: 595
P8_MyD88 Rank (before) [10]: 2662
Sequence: DPQGLVCYYERLVSLL

Rank (after) [1]: 918
Rank (before) [2]: 2663
Sequence: DPQGLVWLYERLFSQI

Rank (after) [3]: 394
Rank (before) [4]: 2672
Sequence: DPQGRDWFYERLVSLF

P8_MyD88 Rank (after) [7]: 567
P8_MyD88 Rank (before) [8]: 2675
Sequence: DPQGVDLFYERQVSLL

Rank (after) [1]: 1001
Rank (before) [2]: 3022
Sequence: DPQLLDWFYVRLVSLL

Rank (after) [1]: 999
Rank (before) [2]: 3024
Sequence: DPQLLDWLYERLRRPV

P8_MyD88 Rank (after) [9]: 640
P8_MyD88 Rank (before) [10]: 3023
Sequence: DPQLLVCFYERLVSLF

Rank (after) [1]: 1010
Rank (before) [2]: 3025
Sequence: DPQLLVCFYERVVRMF

Rank (after) [3]: 392
Rank (before) [4]: 3031
Sequence: DPQNLQWFYERLVILI

P8_MyD88 Rank (after) [7]: 557
P8_MyD88 Rank (before) [8]: 3027
Sequence: DPQTLQSFYERLVSLI

P8_MyD88 Rank (after) [9]: 626
P8_MyD88 Rank (before) [10]: 2646
Sequence: DPQVLDWYYERLVRLF

P8_MyD88 Rank (after) [11]: 718
P8_MyD88 Rank (before) [12]: 2650
Sequence: DPQVLERKYERLVKLV

P8_MyD88 Rank (after) [11]: 684
P8_MyD88 Rank (before) [12]: 2656
Sequence: DPQVLEWFYELLVSLL

P8_MyD88 Rank (after) [9]: 658
P8_MyD88 Rank (before) [10]: 2657
Sequence: DPQVLEWFYERLVSMF

P8_MyD88 Rank (after) [9]: 649
P8_MyD88 Rank (before) [10]: 2649
Sequence: DPQVLEWIYARLFSQM

P8_MyD88 Rank (after) [11]: 677
P8_MyD88 Rank (before) [12]: 2648
Sequence: DPQVLEWLYKRLFSQM

P8_MyD88 Rank (after) [9]: 629
P8_MyD88 Rank (before) [10]: 2644
Sequence: DPQVLVWLYERPFRQI
